From patent US10358453B2, “Antiviral compounds” (priority 2015, dated 2019)

Assays:
[1] = Cytotoxicity determination (CCK-8, without addition of virus); assay type: cell-based; conditions: human, HEp-2 cells (uninfected), no virus, Table C = greater than 100 μM, Table D = equal to or less than 100 μM and greater than 10 μM
Description: CPE reduction assays are performed as described by Sidwell and Huffman et al., Appl. Microbiol. (1971) 22(5):797-801 with slight modifications. HEp-2 cells (ATCC#, CCL-23) are seeded at a density of 1,500 cells/30 μL/well into the 384-well cell plate(s) (Corning#3701) one day prior to the assay. Compounds are added into 384-well cell plates by Labcyte POD 810 Plate Assembler system. Each of the test compounds is provided to duplicate wells of a 384-well cell plate at final concentrations starting from 100 μM or 1 μM using 1/3 stepwise dilutions for 9 points. Quick-thaw Respiratory Syncytial Virus (RSV) long strain (ATCC#VR-26) stock in a 37° C. water bath. Place on ice until ready to use. Viruses are diluted to the concentration of 100 TCID50/30 μL with medium and 30 μl diluted RSV are added into related wells of 384-well cell plates. For each plate, sixteen wells are set aside as uninfected, untreated cell controls (CC), and nine wells per test plate receive virus only as a control for virus replication (VC). The final DMSO concentration of all wells is 1%. Place the plates at 37° C., 5% CO2 for 5 days.
In order to determine the compound cytotoxicity, in parallel, each of the compounds is applied to duplicate wells in a 384-well cell plate at serial final concentrations starting from 100 μM using ½ stepwise dilutions for 7 points without addition of virus. Incubate the cells at 37° C., 5% CO2 for 5 days. Add 6 μL CCK-8 into each well and incubate in a CO2 incubator at 37° C. for 3-4 h. Read the plates to obtain the optical densities which are used to calculate 50% cytotoxicity concentration (CC50).

[2] = molecular target: recombinant RSV complex (Human respiratory syncytial virus A, UniProt P28887); test: RSV polymerase inhibition assay; assay type: biochemical; conditions: 10 nM recombinant RSV complex, 2 h at 30° C.; Table E = <1 μM, Table F = <50 μM; read-out: IC50
Sequence of recombinant RSV complex (P28887 whole entry): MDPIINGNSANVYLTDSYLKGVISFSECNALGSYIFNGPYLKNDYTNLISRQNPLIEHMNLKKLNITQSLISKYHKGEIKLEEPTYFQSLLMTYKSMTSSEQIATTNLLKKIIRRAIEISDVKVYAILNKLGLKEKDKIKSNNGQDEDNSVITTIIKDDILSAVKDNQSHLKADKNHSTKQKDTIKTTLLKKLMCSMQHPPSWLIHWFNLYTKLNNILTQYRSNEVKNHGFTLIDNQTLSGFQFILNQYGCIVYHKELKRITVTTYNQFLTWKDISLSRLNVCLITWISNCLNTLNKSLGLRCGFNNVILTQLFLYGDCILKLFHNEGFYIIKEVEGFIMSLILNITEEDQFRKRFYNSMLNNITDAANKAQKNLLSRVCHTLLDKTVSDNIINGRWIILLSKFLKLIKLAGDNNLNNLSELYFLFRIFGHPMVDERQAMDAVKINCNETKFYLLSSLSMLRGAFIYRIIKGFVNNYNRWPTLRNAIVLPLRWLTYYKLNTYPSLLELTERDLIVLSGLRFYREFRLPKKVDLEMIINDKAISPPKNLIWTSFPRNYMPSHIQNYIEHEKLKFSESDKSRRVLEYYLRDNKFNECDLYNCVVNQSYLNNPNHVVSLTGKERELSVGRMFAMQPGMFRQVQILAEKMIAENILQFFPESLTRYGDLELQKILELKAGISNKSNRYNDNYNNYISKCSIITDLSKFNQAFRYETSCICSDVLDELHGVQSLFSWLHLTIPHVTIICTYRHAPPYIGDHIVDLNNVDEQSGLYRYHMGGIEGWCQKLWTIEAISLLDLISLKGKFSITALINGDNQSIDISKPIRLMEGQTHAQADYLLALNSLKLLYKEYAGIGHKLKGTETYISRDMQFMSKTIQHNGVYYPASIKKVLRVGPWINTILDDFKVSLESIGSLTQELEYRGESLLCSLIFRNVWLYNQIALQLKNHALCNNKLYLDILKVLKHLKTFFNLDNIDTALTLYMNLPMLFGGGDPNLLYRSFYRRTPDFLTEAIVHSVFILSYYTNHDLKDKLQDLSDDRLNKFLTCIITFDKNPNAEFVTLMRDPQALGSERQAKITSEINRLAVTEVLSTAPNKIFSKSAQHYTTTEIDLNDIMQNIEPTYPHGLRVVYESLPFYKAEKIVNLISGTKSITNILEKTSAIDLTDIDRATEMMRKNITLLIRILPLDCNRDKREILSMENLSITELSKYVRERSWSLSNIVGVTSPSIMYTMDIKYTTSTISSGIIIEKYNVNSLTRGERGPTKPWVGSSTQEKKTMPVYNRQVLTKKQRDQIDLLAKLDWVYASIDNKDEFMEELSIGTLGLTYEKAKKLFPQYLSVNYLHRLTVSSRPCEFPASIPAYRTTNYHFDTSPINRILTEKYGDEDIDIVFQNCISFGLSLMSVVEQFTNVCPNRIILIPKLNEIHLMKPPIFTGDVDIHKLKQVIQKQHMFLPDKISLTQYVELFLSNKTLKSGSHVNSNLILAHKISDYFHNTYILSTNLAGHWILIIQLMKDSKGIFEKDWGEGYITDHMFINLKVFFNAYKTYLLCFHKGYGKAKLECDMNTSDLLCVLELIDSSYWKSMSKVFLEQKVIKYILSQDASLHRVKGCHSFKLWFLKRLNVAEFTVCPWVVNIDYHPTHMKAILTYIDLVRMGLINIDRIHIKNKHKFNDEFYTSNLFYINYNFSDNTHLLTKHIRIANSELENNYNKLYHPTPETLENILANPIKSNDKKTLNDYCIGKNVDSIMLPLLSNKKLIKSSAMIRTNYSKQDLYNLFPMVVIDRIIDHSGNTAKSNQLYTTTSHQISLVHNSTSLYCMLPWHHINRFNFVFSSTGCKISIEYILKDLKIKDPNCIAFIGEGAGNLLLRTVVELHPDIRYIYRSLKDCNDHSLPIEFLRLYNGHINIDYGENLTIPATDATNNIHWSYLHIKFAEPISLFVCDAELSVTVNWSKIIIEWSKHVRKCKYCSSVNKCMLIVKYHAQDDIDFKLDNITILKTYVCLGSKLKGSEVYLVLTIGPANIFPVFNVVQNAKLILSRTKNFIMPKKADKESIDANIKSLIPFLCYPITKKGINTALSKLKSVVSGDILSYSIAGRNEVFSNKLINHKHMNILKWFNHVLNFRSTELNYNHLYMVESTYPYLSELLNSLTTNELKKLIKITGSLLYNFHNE
Sequence of recombinant RSV complex (P03421 whole entry, further chain): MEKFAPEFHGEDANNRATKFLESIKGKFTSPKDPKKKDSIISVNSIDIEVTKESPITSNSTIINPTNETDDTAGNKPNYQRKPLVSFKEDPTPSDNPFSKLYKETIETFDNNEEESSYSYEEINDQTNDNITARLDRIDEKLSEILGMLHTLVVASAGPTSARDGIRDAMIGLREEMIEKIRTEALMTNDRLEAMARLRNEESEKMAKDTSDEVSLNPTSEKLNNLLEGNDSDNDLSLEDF
Description: Standard RSV polymerase assays were conducted in the presence of 10 nM recombinant RSV complex in a reaction buffer containing Tris-HCl pH7.5, 6 mM MgCl2, and other additives and substrates including RNA oligonucleotides and radionucleotides. Standard reactions were incubated in 96-well plate format for 2 h at 30° C., in the presence of increasing concentration of inhibitor. The reaction was stopped with 90 μL of 0.1M EDTA, and the reaction product was transferred to a “reading” 96-well plate. After washing of the plate, radiolabeled RNA products were detected according to standard procedures with a Trilux Topcount scintillation counter. The compound concentration at which the enzyme-catalyzed rate was reduced by 50% (IC50) was calculated by fitting the data to a non-linear regression (sigmoidal).

[3] = system: RSV subgenomic replicon 395 HeLa and APC126; test: RSV subgenomic replicon assay (Renilla luciferase); assay type: cell-based; conditions: human respiratory syncytial virus; RSV replicon cells (395 HeLa 7 days or APC126 3 days); Table G = less than 1 μM, Table H = equal to or higher than 1 μM and less than 50 μM
Source text: The RSV subgenomic replicon 395 HeLa and APC126 were licensed from Apath (Brooklyn, N.Y.) and were originally developed by Dr. Mark Meeples of Center for Vaccines & Immunity, the Research Institute at Nationwide Children's Hospital in Columbus, Ohio. To generate subgenomic RSV replicon, three glycoprotein genes, those for SH, G, and F, from a full-length recombinant GFP-expressing (rg) RSV antigenomic cDNA were deleted. In their place, a blasticidin S deaminase (bsd) gene was inserted. Through multiple steps, the RSV replicon was established in HeLa cells (395 Hela) or BHK cells (APC126). Both 395 HeLa and APC126 cells were cultured in Dulbecco's Modified Eagle Medium (DMEM) containing 4500 mg/L D-glucose, L-glutamine, and 110 mg/L sodium pyruvate (Invitrogen, Cat. #11995-040). The medium was further supplemented with 10% (v/v) fetal bovine serum (FBS) (Mediatech, Cat. #35-010-CV), 1% (v/v) penicillin/streptomycin (Mediatech, Cat. #30-002-CI), and 10 μg/mL of Blasticidin (BSD) (Invivogen, Cat. code ant-bl-1). Cells were maintained at 37° C. in a humidified 5% CO2 atmosphere.
Determination of 50% inhibitory concentration (EC50), 90% inhibitory concentration (EC90) and 50% cytotoxic concentration (CC50) in RSV replicon cells were performed by the following procedure. On the first day, 5000 RSV replicon cells per well were plated in a 96-well plate. On the following day, compounds to be tested were solubilized in 100% DMSO to 100X the desired final testing concentration. Each compound was serially diluted (1:3) up to 9 distinct concentrations. Compounds in 100% DMSO were reduced to 10% (v/v) DMSO by diluting 1:10 in cell culture media. A 10 μL sample of the compounds diluted to 10% (v/v) DMSO with cell culture media was used to treat the RSV replicon cells in 96-well format. The final DMSO concentration was 1% (v/v). Cells were incubated with compounds for 7 days (for 395Hela) or 3 days (for APC126) at 37° C. in a 5% CO2 atmosphere. In each assay, positive control that was previously characterized in the RSV replicon assay was included.
The Renilla Luciferase Assay System (Promega, Cat. #E2820) was used to measure anti-RSV replicon activity. Assay plates were set up as stated above. Luminescence was recorded using a Perkin Elmer multilabel counter Victor3V. EC50, the concentration of the drug required for reducing RSV replicon RNA by 50% in relation to the untreated cell control value, was calculated from the plot of percentage reductions of the […] against the drug concentrations using the Microsoft Excel forecast function.

| Structure (SMILES) | CC50 at 5 days [1] [µM] | IC50 [2] [µM] | EC50 [3] [µM] |
| --- | --- | --- | --- |
| COc1cc(C(=O)NCC(O)(c2cc(C(C)(N)C3CC3)cc(-c3ccc(F)cc3)n2)C(F)(F)F)ccc1OC[C@@H](C)O (stereo partly drawn) [Compound 88] | 10 to 100 | < 1 | < 1 |
| COc1cc(C(=O)NCC(O)(c2cc3c(c(-c4ccc(F)cc4)n2)OCC32CCN2)C(F)(F)F)ccc1OC[C@@H](C)O (stereo partly drawn) [Compound 108] | 10 to 100 | < 1 | 1 to 50 |
| COc1cc(C(=O)NC[C@@](O)(c2cc3c(c(-c4ccc(F)cc4)n2)NC[C@@]3(C)N)C(F)(F)F)ccc1OC[C@@H](C)O [Compound 69] | 10 to 100 | < 1 | < 1 |
| C[C@@]1(N)COc2c1cc([C@](O)(CNC(=O)c1cc(OCCO)c3ncccc3c1)C(F)(F)F)nc2-c1ccc(F)cc1 [Compound 80] | 10 to 100 | < 1 | < 1 |
| COc1cc(C(=O)NC[C@](O)(c2cc3c(c(-c4ccc(F)cc4)n2)OC[C@]3(N)C2CC2)C(F)(F)F)ccc1OC[C@@H](C)O (single isomer, unassigned) [Compound 107] | 10 to 100 | < 50 | 1 to 50 |
| COc1cc(C(=O)NC[C@@](O)(c2cc3c(c(-c4ccc(F)cc4)n2)NC[C@@]3(C)N)C(F)(F)F)cc2cccnc12 [Compound 74] | 10 to 100 | < 1 | < 1 |
| COc1cc(C(=O)NCC(O)(c2cc(C3(C)COCCN3)cc(-c3ccc(F)cc3)n2)C(F)(F)F)ccc1OCCO (stereo not drawn) [Compound 119] | > 100 | < 1 | < 1 |
| C[C@@]1(N)COc2c1cc([C@@](O)(CNC(=O)c1ccc(OC3CC3)c(OCCO)c1)C(F)(F)F)nc2-c1ccc(F)cc1 [Compound 60] | 10 to 100 | < 1 | < 1 |
| COc1cc(C(=O)NC[C@@](O)(c2cc3c(c(-c4ccc(F)cc4)n2)OC[C@@]3(C)N)C(F)(F)F)ccc1-c1nc(C)no1 [Compound 19] | 10 to 100 | < 1 | < 1 |
| C[C@@]1(N)COc2c1cc([C@](O)(CNC(=O)c1cc(OCCO)c3[nH]ccc3c1)C(F)(F)F)nc2-c1ccc(F)cc1 [Compound 124] | 10 to 100 | < 1 | < 1 |
| CC(C)(N)c1cc(-c2ccc(F)cc2)nc(C(O)(CNC(=O)c2ccc(OC3CC3)c(OCCO)c2)C(F)(F)F)c1 (stereo not drawn) [Compound 36] | 10 to 100 | < 1 | < 1 |
| COc1cc(C(=O)NC[C@@](O)(c2cc3c(c(-c4ccc(F)cc4)n2)OC[C@@]3(C)NO)C(F)(F)F)ccc1OC[C@@H](C)O [Compound 123] | 10 to 100 | < 1 | < 1 |
| COc1cc(C(=O)NC[C@@](O)(c2cc3c(c(-c4ccc(F)cc4)n2)OC[C@@]3(C)N)C(F)(F)F)ccc1OCC(C)=O [Compound 121] | 10 to 100 | < 1 | < 1 |
| COc1cc(C(=O)NCC(O)(c2cc3c(c(-c4ccncc4)n2)OCC3(C)N)C(F)(F)F)ccc1OCCO (stereo not drawn) [Compound 26] | > 100 | < 50 | 1 to 50 |
| COc1cc(C(=O)NCC(O)(c2cc3c(c(-c4ccc(F)cc4)n2)OCC3(C)N)C(F)(F)F)ccc1NCCO (stereo not drawn) [Compound 30] | 10 to 100 | < 1 | < 1 |
| CC(C)(N)c1cc(-c2ccc(F)cc2)nc(C(O)(CNC(=O)c2ccc(OCCO)c(OC3CC3)c2)C(F)(F)F)c1 (stereo not drawn) [Compound 34] | 10 to 100 | < 1 | < 1 |
| C[C@@]1(N)COc2c1cc(C(O)(CNC(=O)c1ccc3[nH]ccc3c1)C(F)(F)F)nc2-c1ccc(F)cc1 (stereo partly drawn) [Compound 16] | 10 to 100 | < 1 | < 1 |
| CC(C)(N)c1cc(-c2ccc(F)cc2)nc([C@@](O)(CNC(=O)c2ccc(OCCO)c(OC3CC3)c2)C(F)(F)F)c1 [Compound 57] | 10 to 100 | < 1 | < 1 |
